Publication PMC7756392, “Syntheses of Thailandepsin B Pseudo‐Natural Products: Access to New Highly Potent HDAC Inhibitors via Late‐Stage Modification” (Chemistry (Weinheim an Der Bergstrasse, Germany), 2020)

Assays:
acetylated α-tubulin = assay: Western blot, acetylated α-tubulin in HL60 cells; assay type: cell-based; conditions: for ac-tubulin: HL60 cells, 4 h
Method: (§1) LABTECH POLARstar OPTIMA plate reader (BMG Labtechnologies, Germany).
(§2) Western Blot: 2.5 x 10^5 HL60 cells were seeded in sterile 12-well plates and incubated with different concentrations of compound or DMSO for 4 h. Cells were washed with cold PBS, lysed with 90 µL SDS sample buffer (Cell Signaling, 62.5 mM Tris-HCl (pH 6.8 at 25°C), 2% w/v SDS, 10% v/v glycerol, 50 mM dithiothreitol, 0.01% bromophenol blue), shortly sonicated and heated to 95°C for 5 min. Cell extracts were used directly for SDS-PAGE or kept frozen at -20 […]
(§3) For the SDS-PAGE, 7 µL cell lysate were loaded on a 12.5% gel and the gel was run at 150V for approximately 1 h, followed by the transfer to a nitrocellulose membrane. The membrane was blocked with 5% milk in TBS-T 0.1% for 1 h at room temperature and washed (3 x 5 min) with TBS-T before adding the antibodies. Western blot analysis was performed with the following primary antibodies: anti-acetylated α-tubulin (Sigma-Aldrich, 1:1000), anti-acetyl-histone 3 (Millipore, 1:2000) and anti-GAPDH (Sigma-Aldrich, 1:5000) and secondary antibodies: anti-mouse-IgG-HRP (Sigma-Aldrich, 1:10000) and anti-rabbit IgG-HRP (Sigma- […]
(§4) Aldrich, 1:5000). The antibodies were all diluted in 3% milk in TBS-T 0.1%. Detection was performed via enhanced chemiluminescence (ECL Prime) using a FUSION-SL (PEQLAB) and the FUSION-CAPT software.
(§5) Figure 4: Western blot of acetyl-α-tubulin, acetyl-H3 and GAPDH after treatment of HL60 cells with different concentrations of 33 or DMSO for 4 h. GAPDH was used as loading control, DMSO as negative control. […]

acetylated histone 3 = assay: Western blot, acetyl-histone 3 in HL60 cells; assay type: cell-based
Method: as §1, §2, §3, §4, §5

`CCCC[C@H]1NC(=O)C[C@@H](/C=C/CCSC(C)=O)OC(=O)C[C@H](O)[C@@H]([C@@H](C)CC)NC(=O)[C@@H](C)NC1=O` [compound 33] was tested, and the ac-tubulin (acetylated α-tubulin; 0.0001 µM) was 1.1%, the ac-tubulin (acetylated α-tubulin; 0.01 µM) was 1.1% and the ac-tubulin (acetylated α-tubulin; 0.1 µM) was 1.3%. For the same molecule, the ac-tubulin (acetylated α-tubulin; 1 µM) was 1.4%, the “levels of acetylated α-tubulin with increasing inhibitor concentration (in words)” value (acetylated α-tubulin; western blot) was “Constant levels” and the “isotype selectivity for class I HDACs in cells (western blot)” value (acetylated histone 3; HL60 cells, 4 h) was “selective inhibition of class I HDACs”. The “ac-histone 3” value (acetylated histone 3; HL60 cells, 4 h, 0.0001 µM) was 1.1%, the “ac-histone 3” value (acetylated histone 3; HL60 cells, 4 h, 0.001 µM) was 0.9% and the “ac-histone 3” value (acetylated histone 3; HL60 cells, 4 h, 0.01 µM) was 1.8%. For the same molecule, the “ac-histone 3” value (acetylated histone 3; HL60 cells, 4 h, 0.1 µM) was 4.4% and the “levels of acetylated histone 3 with increasing inhibitor concentration (in words)” value (acetylated histone 3; western blot) was “increasing levels”.
